The target in assay [1] is T1, Cbl-b (Homo sapiens, UniProt Q13191). Description: Cbl-b inhibition assay (Cbl-b activity assay, FRET, Biological Example 1; 100 mM NaCl, 60 nM Src kinase). Type of assay: biochemical. To be noted: upper bound stated in text lists; read-out: IC50 values in the Cbl-b inhibition assay of Biological Example 1. Summed up:
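TR-FRET assay using N-terminal biotinylated Avi-tagged Cbl-b bound to streptavidin-terbium, Src kinase for Cbl-b phosphorylation, and UbcH5B irreversibly conjugated to Bodipy-Fluorescein-ubiquitin. Phosphorylated Cbl-b binds UbcH5B-Ub, bringing the fluorophores together; inhibition is read as loss of FRET signal.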

Assay [2] concerns T-cell. Description: IL-2 secretion from T-cells co-stimulated with anti-CD3 and anti-CD28 antibody (Biological Example 2). The assay is classed as cell-based, human. To be noted: Homo sapiens, T-cell, fold change over baseline (anti-CD3/anti-CD28 stimulated T-cells without inhibitor), read-out: IL-2 secretion Anti-CD3/Anti-CD28 stimulation; for fold induction at 0.3 µM: 0.3 μM Cbl-b inhibitor; for fold induction at 1 µM: 1 μM Cbl-b inhibitor. An outline of the steps: (§1)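 Values are fold-change over baseline: readings (IL-2 release, CD25 staining) from inhibitor-treated T-cells divided against untreated cells […]. No detailed procedure stated.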

Assay [3] concerns T-cell. Description: IL-2 secretion from T-cells stimulated with anti-CD3 antibody alone (Biological Example 2). Type of assay: cell-based, human. To be noted: Homo sapiens, T-cell; 1 μM Cbl-b inhibitor; fold change over baseline (anti-CD3/anti-CD28 stimulated T-cells without inhibitor); read-out: IL-2 secretion Anti-CD3 stimulation.
Assay [4] relates to T-cell. Kind of assay: CD25 cell surface staining on T-cells co-stimulated with anti-CD3 and anti-CD28 antibody (Biological Example 2). The assay is classed as cell-based, human. To be noted: Homo sapiens, T-cell, fold change over baseline (anti-CD3/anti-CD28 stimulated T-cells without inhibitor), read-out: CD25 staining Anti-CD3/Anti-CD28 stimulation; for fold induction at 0.3 µM: 0.3 μM Cbl-b inhibitor; for fold induction at 1 µM: 1 μM Cbl-b inhibitor. An outline of the steps: as §1

For assay [5], the system named is T-cell. Kind of assay: CD25 cell surface staining on T-cells stimulated with anti-CD3 antibody alone (Biological Example 2). The following applies: Homo sapiens, T-cell; 1 μM Cbl-b inhibitor; fold change over baseline (anti-CD3/anti-CD28 stimulated T-cells without inhibitor); read-out: CD25 staining Anti-CD3 stimulation. The assay is classed as cell-based, human.
The target in assay [6] is T1, Cbl-b. Kind of assay: Cbl-b activity assay (Cbl-b inhibition assay), TR-FRET of Cbl-b interaction with UbcH5B-Ub. Type of assay: biochemical. The following applies: assay buffer with 100 mM NaCl, 60 nM Src kinase; read-out: Cbl-b activity IC50. Summed up:
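Compound-treated Cbl-b was incubated 1.5 h with Src kinase (60 nM final; 30 nM for asterisked values, which also used 50 mM instead of 100 mM NaCl), 1 mM ATP and 5 mM MgCl2. Binding to fluorescent Ub-loaded UbcH5B (C85K mutant) was then read by TR-FRET after 1 h more.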
Background: TR-FRET usually uses a lanthanide donor and a delayed reading to cut background.

T1 sequence (Q13191 36-427): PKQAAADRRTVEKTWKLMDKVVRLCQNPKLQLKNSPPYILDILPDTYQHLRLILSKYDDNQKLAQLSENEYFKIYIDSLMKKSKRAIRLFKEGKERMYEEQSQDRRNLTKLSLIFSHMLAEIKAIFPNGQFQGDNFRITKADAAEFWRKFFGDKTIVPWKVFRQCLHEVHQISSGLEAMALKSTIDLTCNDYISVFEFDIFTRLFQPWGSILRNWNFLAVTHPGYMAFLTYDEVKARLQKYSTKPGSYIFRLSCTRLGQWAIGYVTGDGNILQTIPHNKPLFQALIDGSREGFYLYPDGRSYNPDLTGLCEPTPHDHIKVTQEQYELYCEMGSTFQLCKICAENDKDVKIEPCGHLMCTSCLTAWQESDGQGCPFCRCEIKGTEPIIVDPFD

On to `Cc1cc(C(=O)Nc2cccc(C3(Cc4nncn4C)COC3)c2)n2nccc2n1` [Example 596, 5-Methyl-N-(3-(3-((4-methyl-4H-1,2,4-triazol-3-yl)methyl)oxetan-3-yl)phenyl)pyrazolo[1,5-a]pyrimidine-7-carboxamide], for which the results for the IC50 at Cbl-b [1] and on Cbl-b [6] were at most 0.3 µM and 0.1 to 0.3 µM, respectively. Besides, the results for the fold induction at 0.3 µM in the assay on T-cell [2] and in the assay on T-cell [4] were 1.01 to 2.5 and 1.01 to 1.3, respectively. Moreover, the fold induction at 1 µM in the assay with T-cell [2] is 1.01 to 2.5; in the assay with T-cell [3] it was under 0.05; in the assay on T-cell [4] it was 1.01 to 1.3; in the assay with T-cell [5] it was 0.601 to 0.8.
Take `Cc1cc(C(=O)Nc2cccc(C3(Cc4nncn4C)COC3)c2)n2nc(C(F)(F)F)cc2n1` [Example 598, 5-Methyl-N-(3-(3-((4-methyl-4H-1,2,4-triazol-3-yl)methyl)oxetan-3-yl)phenyl)-2-(trifluoromethyl)pyrazolo[1,5-a]pyrimidine-7-carboxamide]: the half-inhibitory concentration (IC50) at Cbl-b [1] was at most 0.3 µM; on Cbl-b [6] it was 0.1 to 0.3 µM. Also, the fold induction at 0.3 µM was 1.01 to 2.5 with T-cell [2] and 1.01 to 1.3 in the assay with T-cell [4]. In addition, the fold induction at 1 µM with T-cell [2] was 1.01 to 2.5; with T-cell [3] it was under 0.05; in the assay with T-cell [4], 1.01 to 1.3; in the assay with T-cell [5], 0.601 to 0.8.
With `Cc1cnn2c(C(=O)Nc3cccc(C4(Cc5nncn5C)COC4)c3)cc(C(F)(F)F)nc12` [Example 599, 3-methyl-N-(3-(3-((4-methyl-4H-1,2,4-triazol-3-yl)methyl)oxetan-3-yl)phenyl)-5-(trifluoromethyl)pyrazolo[1,5-a]pyrimidine-7-carboxamide], the half-maximal inhibitory concentration (IC50) on Cbl-b [1] was at most 1 µM; at Cbl-b [6], 0.301 to 1 µM. The results for the fold induction at 0.3 µM with T-cell [2] and in the assay on T-cell [4] were under 1 and 1.01 to 1.3, respectively. Further, the fold induction at 1 µM was 1.01 to 2.5 in the assay on T-cell [2], under 0.05 in the assay on T-cell [3], 1.01 to 1.3 in the assay on T-cell [4] and 0.601 to 0.8 in the assay with T-cell [5].
As to `Cn1cnnc1CC1(c2cccc(N3Cc4c(cc(N5CC(C(F)(F)F)C5)cc4C(F)(F)F)C3=O)c2)COC1` [Example 600, 2-(3-(3-((4-methyl-4H-1,2,4-triazol-3-yl)methyl)oxetan-3-yl)phenyl)-4-(trifluoromethyl)-6-(3-(trifluoromethyl)azetidin-1-yl)isoindolin-1-one], the IC50 is at most 0.1 µM at Cbl-b [1] and under 0.1 µM on Cbl-b [6]. In addition, the fold induction at 0.3 µM was in the range of 2.51 to 5 with T-cell [2] and 1.01 to 1.3 in the assay with T-cell [4]. For the same compound, the fold induction at 1 µM is over 7.5 in the assay on T-cell [2], 0.051 to 0.1 in the assay on T-cell [3], 1.01 to 1.3 with T-cell [4] and over 1 in the assay with T-cell [5].
In the case of `Cn1cnnc1CC1(c2cccc(N3Cc4c(cc(N5CCC(C(F)F)C5)cc4C(F)(F)F)C3=O)c2)COC1` (stereo not shown) [Example 601, 6-(3-(difluoromethyl)pyrrolidin-1-yl)-2-(3-(3-((4-methyl-4H-1,2,4-triazol-3-yl)methyl)oxetan-3-yl)phenyl)-4-(trifluoromethyl)isoindolin-1-one], the concentration for half-maximal inhibition (IC50) was at most 0.1 µM on Cbl-b [1] and under 0.1 µM at Cbl-b [6]. For the same compound, the results for the fold induction at 0.3 µM with T-cell [2] and in the assay on T-cell [4] were 1.01 to 2.5 and 1.01 to 1.3, respectively. Also, the fold induction at 1 µM is 2.51 to 5 in the assay with T-cell [2], under 0.05 with T-cell [3], 1.01 to 1.3 in the assay with T-cell [4] and 0.601 to 0.8 in the assay with T-cell [5].
Regarding `Cn1cnnc1CC1(c2cccc(N3Cc4c(cc(N5CC6(C5)CC(F)(F)C6)cc4C(F)(F)F)C3=O)c2)COC1` [Example 602, 6-(6,6-difluoro-2-azaspiro[3.3]heptan-2-yl)-2-(3-(3-((4-methyl-4H-1,2,4-triazol-3-yl)methyl)oxetan-3-yl)phenyl)-4-(trifluoromethyl)isoindolin-1-one], the IC50 at Cbl-b [1] was at most 0.1 µM; at Cbl-b [6] it was under 0.1 µM. Also, the results for the fold induction at 0.3 µM in the assay with T-cell [2] and with T-cell [4] were 5 to 7.5 and 1.01 to 1.3, respectively. In addition, the fold induction at 1 µM in the assay on T-cell [2] is over 7.5; in the assay on T-cell [3], 0.101 to 0.15; in the assay with T-cell [4], 1.31 to 1.5; in the assay with T-cell [5], over 1.
With `Cn1cnnc1CC1(c2cccc(N3Cc4c(cc(N5CC6(CCC6(F)F)C5)cc4C(F)(F)F)C3=O)c2)COC1` [Example 603, 6-(5,5-difluoro-2-azaspiro[3.3]heptan-2-yl)-2-(3-(3-((4-methyl-4H-1,2,4-triazol-3-yl)methyl)oxetan-3-yl)phenyl)-4-(trifluoromethyl)isoindolin-1-one], the results for the IC50 at Cbl-b [1] and at Cbl-b [6] were at most 0.1 µM and under 0.1 µM, respectively. In addition, the figures for the fold induction at 0.3 µM in the assay with T-cell [2] and with T-cell [4] were 1.01 to 2.5 and 1.01 to 1.3, respectively. In addition, the fold induction at 1 µM is 2.51 to 5 in the assay on T-cell [2], under 0.05 with T-cell [3], 1.01 to 1.3 with T-cell [4] and 0.601 to 0.8 in the assay with T-cell [5].
For the compound `Cn1cnnc1CC1(c2cccc(NC(=O)c3cc(C4CC4)nc4ccnn34)c2)COC1` [Example 604, 5-cyclopropyl-N-(3-(3-((4-methyl-4H-1,2,4-triazol-3-yl)methyl)oxetan-3-yl)phenyl)pyrazolo[1,5-a]pyrimidine-7-carboxamide], the half-inhibitory concentration (IC50) on Cbl-b [1] is at most 0.1 µM; on Cbl-b [6], under 0.1 µM. The values for the fold induction at 0.3 µM in the assay on T-cell [2] and with T-cell [4] were 1.01 to 2.5 and 1.01 to 1.3, respectively. In addition, the fold induction at 1 µM is 2.51 to 5 in the assay on T-cell [2], under 0.05 in the assay with T-cell [3], 1.01 to 1.3 with T-cell [4] and 0.601 to 0.8 in the assay on T-cell [5].
With `Cn1cnnc1CC1(c2cccc(NC(=O)c3ccnc4ccnn34)c2)COC1` [Example 605, N-(3-(3-((4-methyl-4H-1,2,4-triazol-3-yl)methyl)oxetan-3-yl)phenyl)pyrazolo[1,5-a]pyrimidine-7-carboxamide], the figures for the IC50 at Cbl-b [1] and at Cbl-b [6] were at most 0.3 µM and 0.1 to 0.3 µM, respectively. Also, the fold induction at 0.3 µM in the assay with T-cell [2] was 1.01 to 2.5; in the assay on T-cell [4] it was 1.01 to 1.3. The fold induction at 1 µM in the assay on T-cell [2] was 2.51 to 5; in the assay on T-cell [3], under 0.05; in the assay on T-cell [4], 1.01 to 1.3; with T-cell [5], 0.601 to 0.8.
In the case of `Cc1cc(C(=O)Nc2cccc(C3(Cc4nncn4C)COC3)c2)n2ncc(C)c2n1` [Example 606, 3,5-dimethyl-N-(3-(3-((4-methyl-4H-1,2,4-triazol-3-yl)methyl)oxetan-3-yl)phenyl)pyrazolo[1,5-a]pyrimidine-7-carboxamide], the 50% inhibitory concentration (IC50) on Cbl-b [1] was at most 0.1 µM; on Cbl-b [6] it was under 0.1 µM. The results for the fold induction at 0.3 µM in the assay with T-cell [2] and in the assay with T-cell [4] were 2.51 to 5 and 1.01 to 1.3, respectively. The fold induction at 1 µM lay within 2.51 to 5 in the assay on T-cell [2], 0.051 to 0.1 with T-cell [3], 1.01 to 1.3 in the assay with T-cell [4] and 0.801 to 1 in the assay on T-cell [5].
Turning to `CC1CN(c2cc3c(c(C(F)(F)F)c2)CN(c2cccc(C4(Cc5nncn5C)COC4)c2)C3=O)C1` [Example 607, 2-(3-(3-((4-methyl-4H-1,2,4-triazol-3-yl)methyl)oxetan-3-yl)phenyl)-6-(3-methylazetidin-1-yl)-4-(trifluoromethyl)isoindolin-1-one], the results for the IC50 at Cbl-b [1] and on Cbl-b [6] were at most 0.1 µM and under 0.1 µM, respectively. The fold induction at 0.3 µM in the assay with T-cell [2] was in the range of 1.01 to 2.5; in the assay on T-cell [4], 1.01 to 1.3. Moreover, the fold induction at 1 µM in the assay with T-cell [2] was in the range of 2.51 to 5; with T-cell [3], 0.101 to 0.15; with T-cell [4], 1.01 to 1.3; with T-cell [5], 0.601 to 0.8.

In general, IC50 refers to the concentration needed to halve the response being measured.
